Assay results: patent US20260125382A1, “COMPOUNDS FOR INHIBITING OR DEGRADING CDK2 AND/OR CDK9 AND MEDICINAL USE THEREOF” (KOREA RESEARCH INSTITUTE OF CHEMICAL TECHNOLOGY, priority 2022, published 2026)

Key:
[1] = target: T1, CDK2 (Homo sapiens, UniProt P24941); experiment: CDK protein degradation activity (Western blotting), CDK2; type: cell-based; settings: MDA-MB-231 cells, 16 hours, Western blot
T1 construct: endogenous in cells; host or cells: MDA-MB-231
Method in brief: (§1)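 Degradation is judged from CDK2 and CDK9 band intensity relative to tubulin and DMSO-treated cells, after 16 h exposure of MDA-MB-231 cells to three compound concentrations (100 nM, 1 μM, 10 μM).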

[2] = target: T2, CDK9 (Homo sapiens, UniProt P50750); experiment: CDK protein degradation activity (Western blotting), CDK9; type: cell-based; settings: MDA-MB-231 cells, 16 hours, Western blot
T2 construct: endogenous in cells; host or cells: MDA-MB-231
T2 sequence (P50750 whole entry): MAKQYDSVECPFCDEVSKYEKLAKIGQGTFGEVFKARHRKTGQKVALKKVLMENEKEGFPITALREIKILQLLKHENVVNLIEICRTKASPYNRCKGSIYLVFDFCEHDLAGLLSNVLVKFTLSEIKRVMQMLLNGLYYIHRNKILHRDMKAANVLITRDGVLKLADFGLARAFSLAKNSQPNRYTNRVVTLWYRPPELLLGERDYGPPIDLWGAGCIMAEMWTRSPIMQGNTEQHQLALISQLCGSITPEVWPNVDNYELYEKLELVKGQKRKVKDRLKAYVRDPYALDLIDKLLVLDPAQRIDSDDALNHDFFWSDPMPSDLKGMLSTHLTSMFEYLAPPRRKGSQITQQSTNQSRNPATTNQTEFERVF
Method in brief: as §1

Row | SMILES | Enzyme degradation CDK2 (% remaining) @ 0.1 μM [1] | Enzyme degradation CDK2 (% remaining) @ 1 μM [1] | Enzyme degradation CDK2 (% remaining) @ 10 μM [1] | Enzyme degradation CDK9 (% remaining) @ 0.1 μM [2] | Enzyme degradation CDK9 (% remaining) @ 1 μM [2] | Enzyme degradation CDK9 (% remaining) @ 10 μM [2]
1 | Cc1cccc(C(=O)NC2CC(n3cnc4c(NCCC5CCN(CC6CCN(C(=O)COc7cccc8c7C(=O)N([C@H]7CCC(=O)NC7=O)C8=O)CC6)CC5)ncnc43)C2)n1 (stereo partly drawn) [Compound 122, N-((1s,3s)-3-(6-((2-(1-((1-(2-((2-(2,6-dioxopiperidin-3-yl)-1,3-dioxoisoindolin-4-yl)oxy)acetyl)piperidin-4-yl)methyl)piperidin-4-yl)ethyl)amino)-9H-purin-9-yl)cyclobutyl)-6-methylpicolinamide] | 30% | 10% | 0% | 10% | 0% | 0%
2 | O=C1CC[C@H](N2C(=O)c3ccc(N4CC(C(=O)N5CCC(CN6CCN(c7ccc(Nc8ncnc9c8ncn9C8CC(NC(=O)Cc9ccccc9)C8)cc7)CC6)CC5)C4)cc3C2=O)C(=O)N1 (stereo partly drawn) [Compound 329, N-((1s,3s)-3-(6-((4-(4-((1-(1-(2-(2,6-dioxopiperidin-3-yl)-1,3-dioxoisoindolin-5-yl)azetidin-3-carbonyl)piperidin-4-yl)methyl)piperazin-1-yl)phenyl)amino)-9H-purin-9-yl)cyclobutyl)-2-phenylacetamide] | 50% | 50% | 60% | 10% | 0% | 0%
3 | O=C1CC[C@@H](c2ccc(OCC(=O)N3CCC(OCCN4CCN(c5ccc(Nc6ncnc7c6ncn7C6CC(NC(=O)Cc7ccccc7)C6)cc5)CC4)CC3)cc2)C(=O)N1 (stereo partly drawn) [Compound 250, N-((1s,3s)-3-(6-((4-(4-(2-((1-(2-(4-(2,6-dioxopiperidin-3-yl)phenoxy)acetyl)piperidin-4-yl)oxy)ethyl)piperazin-1-yl)phenyl)amino)-9H-purin-9-yl)cyclobutyl)-2-phenylacetamide] | 60% | 40% | 30% | 40% | 10% | 0%
4 | O=C1CC[C@H](N2C(=O)c3cc(F)c(N4CCC(C(=O)N5CCC6(CC5)CC(N5CCN(c7ccc(Nc8ncnc9c8ncn9C8CC(NC(=O)Cc9ccccc9)C8)cc7)CC5)C6)CC4)cc3C2=O)C(=O)N1 (stereo partly drawn) [Compound 460, N-((1s,3s)-3-(6-((4-(4-(7-(1-(2-(2,6-dioxopiperidin-3-yl)-6-fluoro-1,3-dioxoisoindolin-5-yl)piperidin-4-carbonyl)-7-azaspiro[3.5]nonan-2-yl)piperazin-1-yl)phenyl)amino)-9H-purin-9-yl)cyclobutyl)-2-phenylacetamide] | 40/40/40% | 40/40/40% | 40/40/40% | 0/0/0% | 0/0/0% | 0/0/0%
5 | N#Cc1cccc(C(=O)N[C@H]2C[C@@H](n3cnc4c(Nc5ccc(N6CCN(CC7CCN(C(=O)CNc8cccc9c8C(=O)N(C8CCC(=O)NC8=O)C9=O)CC7)CC6)cc5)ncnc43)C2)n1 (stereo partly drawn) [Compound 420, 6-cyano-N-((1s,3s)-3-(6-((4-(4-((1-((2-(2,6-dioxopiperidin-3-yl)-1,3-dioxoisoindolin-4-yl)glycyl)piperidin-4-yl)methyl)piperazin-1-yl)phenyl)amino)-9H-purin-9-yl)cyclobutyl)picolinamide] | 10/10/10% | 10/10/10% | 10/10/10% | 0/0/0% | 0/0/0% | 0/0/0%
6 | O=C1CC[C@H](N2C(=O)c3ccc(N4CC(CN5CCC(CCN6CCN(c7ccc(Nc8ncnc9c8ncn9[C@H]8C[C@@H](NC(=O)Cc9ccccc9)C8)cc7)CC6)CC5)C4)cc3C2=O)C(=O)N1 [Compound 375, N-((1s,3s)-3-(6-((4-(4-(2-(1-((1-(2-(2,6-dioxopiperidin-3-yl)-1,3-dioxoisoindolin-5-yl)azetidin-3-yl)methyl)piperidin-4-yl)ethyl)piperazin-1-yl)phenyl)amino)-9H-purin-9-yl)cyclobutyl)-2-phenylacetamide] | 30% | 10% | 10% | 30% | 10% | 10%
7 | O=C1CC[C@@H](c2ccc(OCC(=O)N3CCC(CCN4CCN(c5ccc(Nc6ncnc7c6ncn7C6CC(NC(=O)Cc7ccccc7)C6)cc5)CC4)CC3)cc2)C(=O)N1 (stereo partly drawn) [Compound 433, N-((1s,3s)-3-(6-((4-(4-(2-(1-(2-(4-(2,6-dioxopiperidin-3-yl)phenoxy)acetyl)piperidin-4-yl)ethyl)piperazin-1-yl)phenyl)amino)-9H-purin-9-yl)cyclobutyl)-2-phenylacetamide] | 80% | 90% | 90% | 20% | 10% | 10%
8 | O=C1CC[C@H](n2nnc3ccc(N4CCC(CN5CCC(CCNc6ncnc7c6ncn7C6CC(NC(=O)c7c(Cl)cccc7Cl)C6)CC5)CC4)cc3c2=O)C(=O)N1 (stereo partly drawn) [Compound 398, 2,6-dichloro-N-((1s,3s)-3-(6-((2-(1-((1-(3-(2,6-dioxopiperidin-3-yl)-4-oxo-3,4-dihydrobenzo[d][1,2,3]triazin-6-yl)piperidin-4-yl)methyl)piperidin-4-yl)ethyl)amino)-9H-purin-9-yl)cyclobutyl)benzamide] | 20% | 30% | 30% | 20% | 10% | 10%
9 | O=C1CC[C@H](N2C(=O)c3cccc(OCC(=O)N4CCC(OCCN5CCN(c6ccc(Nc7ncnc8c7ncn8C7CC(NC(=O)Cc8ccccc8)C7)cc6)CC5)CC4)c3C2=O)C(=O)N1 (stereo partly drawn) [Compound 246, N-((1s,3s)-3-(6-((4-(4-(2-((1-(2-((2-(2,6-dioxopiperidin-3-yl)-1,3-dioxoisoindolin-4-yl)oxy)acetyl)piperidin-4-yl)oxy)ethyl)piperazin-1-yl)phenyl)amino)-9H-purin-9-yl)cyclobutyl)-2-phenylacetamide] | 60% | 40% | 40% | 80% | 30% | 0%
10 | N#Cc1cccc(C(=O)NC2CC(n3cnc4c(Nc5ccc(N6CCN(CC7CCN(c8ccc9c(c8)C(=O)N([C@H]8CCC(=O)NC8=O)C9=O)CC7)CC6)cc5)ncnc43)C2)n1 (stereo partly drawn) [Compound 392, 6-cyano-N-((1s,3s)-3-(6-((4-(4-((1-(2-(2,6-dioxopiperidin-3-yl)-1,3-dioxoisoindolin-5-yl)piperidin-4-yl)methyl)piperazin-1-yl)phenyl)amino)-9H-purin-9-yl)cyclobutyl)picolinamide] | 0% | 0% | 10% | 0/0/0% | 0/0/0% | 0/0/0%
11 | O=C1CCC(N2C(=O)c3cccc(N4CCC(CN5CCC(CNc6ncnc7c6ncn7[C@H]6C[C@@H](NC(=O)Cc7ccccc7)C6)CC5)CC4)c3C2=O)C(=O)N1 (stereo partly drawn) [Compound 180, N-((1s,3s)-3-(6-(((1-((1-(2-(2,6-dioxopiperidin-3-yl)-1,3-dioxoisoindolin-4-yl)piperidin-4-yl)methyl)piperidin-4-yl)methyl)amino)-9H-purin-9-yl)cyclobutyl)-2-phenylacetamide] | 30/30/30% | 30/30/30% | 30/30/30% | 20% | 80% | 0%
